Experimental data: patent EP0908457B1, “3-(1,2-benzisothiazol- and isoxazol-5-Y1)-2,4(1H,3H)-pyrimidinedione or thione and 3-(1,2-benzisothiazol- and isoxazol-5-y1)-4(3H)-pyrimidinone or thione herbicidal agents” (BASF AKTIENGESELLSCHAFT, priority 1997, dated 1999)

How the values were obtained:
[1] = test system: Cyperus serotinus, Rottb.; assay: Preemergence weed control under flooded paddy conditions, CYPSE (Flatsedge); format: in vivo; details: for herbicidal effect rating, CYPSE: preemergence; for CYPSE: preemergence weeds, herbicidal effect rating 0-9, three to four weeks after treatment; for herbicidal effect rating, CYPSE: meaning of each grade not given here
[2] = test system: Monochoria vaginalis, Presl.; assay: Preemergence weed control under flooded paddy conditions, MOOVA (Monochoria); format: in vivo; details: flooded paddy; for herbicidal effect rating, MOOVA: preemergence; for MOOVA: preemergence weeds, herbicidal effect rating 0-9, three to four weeks after treatment; for herbicidal effect rating, MOOVA: meaning of each grade not given here
[3] = test system: Oryza sativa, (L.) Tebonnet; assay: Rice tolerance to post-transplant applications under flooded paddy conditions (Example 187), ORYSAT (Rice, Tebonnet); details: for ORYSAT: herbicidal effect rating 0-9, three to four weeks after treatment; for herbicidal effect rating ORYSAT: meaning of each grade not given here
[4] = test system: Echinochloa oryzoides (Ard.) Fritsch.; assay: Preemergence weed control under flooded paddy conditions, ECHORC (Watergrass (Calif.)); format: in vivo; details: flooded paddy; for herbicidal effect rating, ECHORC: preemergence; for ECHORC: preemergence weeds, herbicidal effect rating 0-9, three to four weeks after treatment; for herbicidal effect rating, ECHORC: meaning of each grade not given here
Sagittaria pygmaea, L. = assay: Preemergence weed control under flooded paddy conditions, SAGPY (Arrowhead (Pygmaea)); format: in vivo; details: flooded paddy; for herbicidal effect rating, SAGPY: preemergence; for SAGPY: preemergence weeds, herbicidal effect rating 0-9, three to four weeks after treatment; for herbicidal effect rating, SAGPY: meaning of each grade not given here
Cyperus iria = assay: Preemergence weed control under flooded paddy conditions, CYPIR (Rice Flatsedge); format: in vivo; details: flooded paddy; for herbicidal effect rating, CYPIR: preemergence; for CYPIR: preemergence weeds, herbicidal effect rating 0-9, three to four weeks after treatment; for herbicidal effect rating, CYPIR: meaning of each grade not given here
[5] = Rate 0.0320 kg/ha, rated three to four weeks after treatment
[6] = Rate 0.2500 kg/ha, rated three to four weeks after treatment
[7] = Rate 0.0620 kg/ha, rated three to four weeks after treatment
[8] = Rate 0.1250 kg/ha, rated three to four weeks after treatment
[9] = Rate 0.0320 kg/ha, rated 3-4 weeks after treatment
[10] = Rate 0.1250 kg/ha, rated 3-4 weeks after treatment
[11] = Rate 0.2500 kg/ha, rated 3-4 weeks after treatment
[12] = Rate 0.5000 kg/ha, rated 3-4 weeks after treatment
[13] = Rate 0.0620 kg/ha, rated 3-4 weeks after treatment

CC(c1nsc2ccc(-n3c(=O)cc(C(F)(F)F)n(C)c3=O)cc12)S(C)(=O)=O (stereo not shown) [Example 590, 2,4(1H,3H)-Pyrimidinedione, 1-methyl-3-{3-[1-(methylsulfonyl)ethyl}-1,2-benzisothiazol-5-yl}-6-(trifluoromethyl)-]
herbicidal effect rating, CYPSE [1, 5]: 0.0
herbicidal effect rating, CYPSE [1, 6]: 5.0
herbicidal effect rating, MOOVA [2, 7]: 7.0
herbicidal effect rating, MOOVA [2, 8]: 7.0
herbicidal effect rating, MOOVA [2, 6]: 9.0
herbicidal effect rating ORYSAT [3, 5]: 3.0
herbicidal effect rating ORYSAT [3, 7]: 5.0
herbicidal effect rating ORYSAT [3, 8]: 5.0
herbicidal effect rating ORYSAT [3, 6]: 6.0
herbicidal effect rating, ECHORC [4, 5]: 3.0
herbicidal effect rating, ECHORC [4, 7]: 5.0
herbicidal effect rating, ECHORC [4, 8]: 6.0
herbicidal effect rating, ECHORC [4, 6]: 9.0
herbicidal effect rating, SAGPY (Sagittaria pygmaea, L.; [5]): 3.0
herbicidal effect rating, SAGPY (Sagittaria pygmaea, L.; [7]): 4.0
herbicidal effect rating, SAGPY (Sagittaria pygmaea, L.; [8]): 8.0
herbicidal effect rating, SAGPY (Sagittaria pygmaea, L.; [6]): 9.0
herbicidal effect rating, CYPIR (Cyperus iria; [5]): 2.0
herbicidal effect rating, CYPIR (Cyperus iria; [7]): 7.0
herbicidal effect rating, CYPIR (Cyperus iria; [8]): 7.0
herbicidal effect rating, CYPIR (Cyperus iria; [6]): 9.0

Cc1ccc(OC(C)(C)C(=O)OCCCl)c(-c2nsc3ccc(-n4c(=O)cc(C(F)(F)F)n(C)c4=O)cc23)c1 [Example 544, Propionic acid, 2-{{2-{5-[3,6-dihydro-3-methyl-2,6-dioxo-4-(trifluoromethyl)-1(2H)-pyrimidinyl]-1,2-benzisothiazol-3-yl}-p-tolyl}oxy}-2-methyl-, 2-chloroethyl ester]
herbicidal effect rating, CYPSE [1, 9]: 9.0
herbicidal effect rating, CYPSE [1, 10]: 7.0
herbicidal effect rating, CYPSE [1, 11]: 9.0
herbicidal effect rating, CYPSE [1, 12]: 4.0
herbicidal effect rating, MOOVA [2, 9]: 9.0
herbicidal effect rating, MOOVA [2, 13]: 9.0
herbicidal effect rating, MOOVA [2, 10]: 9.0
herbicidal effect rating, MOOVA [2, 11]: 9.0
herbicidal effect rating, MOOVA [2, 12]: 9.0
herbicidal effect rating ORYSAT [3, 9]: 4.0
herbicidal effect rating ORYSAT [3, 13]: 9.0
herbicidal effect rating ORYSAT [3, 10]: 9.0
herbicidal effect rating ORYSAT [3, 11]: 9.0
herbicidal effect rating ORYSAT [3, 12]: 8.0
herbicidal effect rating, ECHORC [4, 9]: 5.4
herbicidal effect rating, ECHORC [4, 13]: 5.6
herbicidal effect rating, ECHORC [4, 10]: 6.4
herbicidal effect rating, ECHORC [4, 11]: 9.0
herbicidal effect rating, ECHORC [4, 12]: 9.0
herbicidal effect rating, SAGPY (Sagittaria pygmaea, L.; [9]): 7.0
herbicidal effect rating, SAGPY (Sagittaria pygmaea, L.; [13]): 4.0
herbicidal effect rating, SAGPY (Sagittaria pygmaea, L.; [10]): 8.0
herbicidal effect rating, SAGPY (Sagittaria pygmaea, L.; [11]): 9.0
herbicidal effect rating, SAGPY (Sagittaria pygmaea, L.; [12]): 9.0
herbicidal effect rating, CYPIR (Cyperus iria; [9]): 9.0
herbicidal effect rating, CYPIR (Cyperus iria; [13]): 9.0
herbicidal effect rating, CYPIR (Cyperus iria; [10]): 9.0
herbicidal effect rating, CYPIR (Cyperus iria; [11]): 9.0
herbicidal effect rating, CYPIR (Cyperus iria; [12]): 9.0

COc1cc(C(Br)Br)ccc1-c1nsc2ccc(-n3c(=O)cc(C(F)(F)F)n(C)c3=O)cc12 [Example 447, 2,4(1H,3H)-Pyrimidinedione, 3-[3-(alpha,alpha-dibromo-2-methoxy-p-tolyl)-1,2-benzisothiazol-5-yl]-1-methyl-6-(trifluoromethyl)-]
CYPSE ([1]; 0.0320 kg/ha): 0.0
CYPSE ([1]; 0.0620 kg/ha): 0.0
CYPSE ([1]; 0.2500 kg/ha): 4.0
MOOVA ([2]; 0.0320 kg/ha): 7.0
MOOVA ([2]; 0.0620 kg/ha): 9.0
MOOVA ([2]; 0.1250 kg/ha): 9.0
MOOVA ([2]; 0.2500 kg/ha): 9.0
ORYSAT ([3]; 0.0320 kg/ha): 4.0
ORYSAT ([3]; 0.0620 kg/ha): 4.0
ORYSAT ([3]; 0.1250 kg/ha): 5.0
ORYSAT ([3]; 0.2500 kg/ha): 7.0
ECHORC ([4]; 0.0320 kg/ha): 4.0
ECHORC ([4]; 0.0620 kg/ha): 6.0
ECHORC ([4]; 0.1250 kg/ha): 7.0
ECHORC ([4]; 0.2500 kg/ha): 9.0
SAGPY (Sagittaria pygmaea, L.; 0.0320 kg/ha): 4.0
SAGPY (Sagittaria pygmaea, L.; 0.0620 kg/ha): 4.0
SAGPY (Sagittaria pygmaea, L.; 0.1250 kg/ha): 5.0
SAGPY (Sagittaria pygmaea, L.; 0.2500 kg/ha): 9.0
CYPIR (Cyperus iria; 0.0320 kg/ha): 4.0
CYPIR (Cyperus iria; 0.0620 kg/ha): 6.0
CYPIR (Cyperus iria; 0.1250 kg/ha): 7.0
CYPIR (Cyperus iria; 0.2500 kg/ha): 9.0
